Assay results from patent publication US20220387370A1, “METHODS OF REDUCING NEUROLOGICAL DAMAGE IN WILSON DISEASE PATIENTS” (priority 2019, published 2022).
Entries after “also recorded” stand apart in the source; their conditions may differ.

How the values were obtained:
PBCEC monolayers = assay: Electron microscopy of tight junctions of PBCECs; format: cell-based, porcine; conditions: copper-treated PBCECs, electron micrographs
Description: Electron microscopy of PBCECS grown on Transwell® inserts was performed as previously described (Ye, D., K. A. Dawson, and I. Lynch, Analyst, 2015. 140(1): p. 83-97) with minor modifications. Briefly, after fixation with 2.5% glutaraldehyde, cell monolayers were post-fixed with 1% osmium tetroxide for 30 min and dehydrated by ethanol.

[1] = system: Zonula occludens-1 (ZO-1); assay: Immunocytochemistry staining of Zonula occludens-1 in PBCEC monolayers; format: cell-based, porcine; conditions: 250 μM copper and 83.3 μM albumin, 250 μM chelator
Description: (§1) Total copper was determined by ICP-MS/MS as previously described (Kopp, J. F., et al., J Trace Elem Med Biol, 2019. 54: p. 221-225). For the immunocytochemical staining of tight junction proteins, confluent PBCECs cultivated on Transwell® membrane inserts were processed as previously described ([…]., et al., Archives of Toxicology 2018. 92(2): p. 823-832). Briefly, PBCECs were fixed with formaldehyde and permeabilized using Triton X-100. After blocking of unspecific binding sites by albumin, the cells were incubated with the either anti-claudin 5 or anti-ZO-1 antibody (Zytomed Systems GmbH, Berlin, Germany). Following a second blocking step, the cells were treated with an Alexa Fluor® 488 conjugated secondary antibody (Invitrogen, Molecular Probes Inc., Eugene, USA). Hoechst 33258 (Merck, Darmstadt, Germany) was used to stain cell nuclei. Subsequently, membranes were cut out of the inserts and mounted in Aqua Poly/Mount (Polysciences Inc., Washington, USA). After a solidification period of 24 hours, the samples were evaluated using a DM6 B fluorescence microscope by Leica Microsystems CMS GmbH (Wetzlar, Germany) in combination with the Leica Application Suite X.

HepG2 cells [2] = assay: Trypan blue-assessed cell viability under Cu-albumin, HepG2; format: cell-based, human; conditions: 750 μM copper, 250 μM albumin, 750 μM chelator
Description: Afterwards, cells were trypsinized and counted.

[3] = system: tight junction protein claudin-5; assay: Immunocytochemistry staining of claudin-5 in PBCEC monolayers; format: cell-based, porcine; conditions: 250 μM copper and 83.3 μM albumin, 250 μM chelator
Description: as §1

Atp7b^−/− rats = assay: Chelator treatment of WD rats: copper in serum, urine and feces (ICP-OES); format: in vivo, rat
Description: Control Atp7b^+/- and WD Atp7b^-/- rats were fed ad libitum with normal chow (1314; 13.89 mg Cu/kg; Altromin Spezialfutter GmbH, […], Germany) and tap water. All rats were healthy at treatment start and presented no signs of acute liver damage (serum AST <200 U/L and serum bilirubin <0.5 mg/dl). […] Untreated Atp7b^+/- and Atp7b^-/- rats served as controls. Urine and feces were collected at 24-hour intervals for which rats were housed individually in metabolic cages for 4 days. After a two-day resting period off treatment in normal cages and group housing, rats were sacrificed for serum collection.

Cu-albumin = Cu-albumin (Bos taurus, UniProt P02769)
Description: EPR spectra were recorded at 77 K using an ECS106 spectrometer (Brucker BioSpin, Karlsruhe, Germany) operating in X-band at about 9.5 GHz.

[4] = system: primary porcine brain capillary endothelial cells (PBCECs); conditions: 750 μM copper and 250 μM albumin, 750 μM ALXN1840, 48 h
Description: For transepithelial resistance (TEER) experiments (Srinivasan, B., et al., J Lab Autom, 2015. 20(2): p. 107-26), cryopreserved primary porcine brain capillary endothelial cells (PBCECs) were thawed and seeded either on rat tail collagen-coated 96-well plates for cytotoxicity testing using the Neutral red assay (Repetto, G., A. del Peso, and J. L. Zurita, Nat Protoc, 2008. 3(7): p. 1125-31) or Transwell® inserts (area: 1.12 cm^2, pore size: 0.4 μm: Corning, N.Y., USA) for barrier integrity studies. Cells were cultured for 48 hours in Earle's Medium 199 supplemented with 10% FCS, 50 U penicillin/mL, 50 μg/mL streptomycin, 100 μg/mL gentamycin and 0.7 mM I-glutamine and maintained at 37° C. in a humidified atmosphere with 5% CO2. […] TEER and capacitance values were continuously monitored over 48 h using a CellZscope device (nanoAnalytics, Münster, Germany). Only PBCEC monolayers with initial TEER values >600Ωcm^2 and capacitance values between 0.45 and 0.6 μF/cm^2 were used for permeability studies (Bornhorst, J., et al., J Biol Chem, 2012. 287(21): p. 17140-51). The barrier integrity was calculated by normalizing the TEER values to the respective start values.

HepG2 cells [5] = assay: Cu-albumin cell toxicity, CellTiter-Glo, HepG2; format: cell-based, human
Description: (§2) SHSY5Y (human neuroblastoma), U87MG (human astrocytoma), EA.hy926 (human endothelium) and HepG2 (human hepatocellular carcinoma) cells were from ATCC (Wesel, Germany) and were cultured in Dulbecco's Modified Eagle Medium (DMEM) supplemented with 10% FCS (Biochrom, Berlin, Germany) and 1% antibiotic-antimycotic (Life Technologies, Carlsbad, USA). All cells were maintained at 37° C. in a humidified atmosphere with 5% CO2.

[6] = system: HepG2, EA.hy926, U87MG and SHSY5Y cells; assay: Toxicity of the chelator itself in a copper-free setting, CellTiter-Glo; conditions: without external Cu-albumin addition
Description: as §2

Cu-albumin, sequence (P02769 25-607): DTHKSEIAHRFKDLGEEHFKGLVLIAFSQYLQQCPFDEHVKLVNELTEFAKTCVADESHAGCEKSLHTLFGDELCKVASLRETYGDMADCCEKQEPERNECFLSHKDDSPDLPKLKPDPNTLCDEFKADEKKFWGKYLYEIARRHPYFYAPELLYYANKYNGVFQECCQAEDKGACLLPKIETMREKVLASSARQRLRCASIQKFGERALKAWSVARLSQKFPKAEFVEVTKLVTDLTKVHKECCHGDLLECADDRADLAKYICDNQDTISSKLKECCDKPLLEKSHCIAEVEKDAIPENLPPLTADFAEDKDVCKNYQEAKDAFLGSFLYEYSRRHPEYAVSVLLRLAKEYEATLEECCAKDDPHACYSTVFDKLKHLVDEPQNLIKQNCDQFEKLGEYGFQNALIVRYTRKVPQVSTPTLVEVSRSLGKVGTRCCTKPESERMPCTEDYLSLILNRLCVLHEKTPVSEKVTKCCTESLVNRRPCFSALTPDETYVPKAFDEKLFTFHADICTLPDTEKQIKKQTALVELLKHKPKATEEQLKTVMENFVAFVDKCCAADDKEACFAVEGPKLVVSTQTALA

C[N+](C)(C)CCO.C[N+](C)(C)CCO.[SH-].[SH-].[S]=[Mo]=[S] [ALXN1840, bis-choline tetrathiomolybdate]
loss of electron-dense protein complexes at the cell-cell borders (PBCEC monolayers): can be prevented
ZO-1 distribution (uneven, diffuse staining upon Cu-albumin) [1]: could be fully protected; also recorded: prevented
Trypan blue-assessed cell viability / copper-related cell toxicity (HepG2 cells [2]): rescued HepG2 cells
claudin-5 staining pattern / copper-induced gap formation [3]: continuous and uninterrupted; also recorded: less pronounced
fecal copper excretion (Atp7b^−/− rats; during treatment): unchanged
urinary copper excretion (Atp7b^−/− rats; during treatment, urine collected over 24 h): lack of urinal copper excretion
serum copper levels (Atp7b^−/− rats; i.p. once daily for 4 consecutive days (ALXN1840 2.5 mg/kg bw, DPA 100 mg/kg bw), serum at sacrifice after resting period): significantly increased; also recorded: increased serum copper levels
net copper excretion (urine and feces) (Atp7b^−/− rats; observation period of 96 hours): no profoundly elevated net copper excretion
drop of signal intensity of EPR-active cupric copper (Cu-albumin; TPC versus Cu-albumin): around 50%
copper redox status in the tripartite complex (EPR) (Cu-albumin; albumin, copper and ALXN1840): partial reduction of copper
cell viability (neutral red) [4]: could be rescued
CellTiterGlo-assessed cell viability / Cu-albumin toxicity (HepG2 cells [5]; HepG2, 750 μM chelator): protected
CellTiterGlo-assessed cell viability / Cu-albumin toxicity (HepG2 cells [5]; HepG2, low dose of chelator (250 μM)): partially rescued
CellTiterGlo-assessed cell viability with chelator alone [6]: becomes toxic at elevated concentrations; also recorded: dose-dependent reduction
